{"source": "ChEMBL document CHEMBL3352475", "about": "“Novel dammarane saponins from Gynostemma pentaphyllum and their cytotoxic activities against HepG2 cells” (Bioorg Med Chem Lett, 2014)"}
{"test_system": "HepG2", "assay": "Cytotoxicity against human HepG2 cells after 24 hrs by CCK-8 assay", "format": "functional, cell-based", "conditions": "HepG2, 24 h", "units": {"IC50": "µg/mL"}}
{"compound": "CC(=O)OC[C@H]1O[C@@H](O[C@H]2[C@H](O[C@H]3[C@H](O)C[C@]4(C)[C@H]5C[C@@H](O)[C@@H]6[C@@H](/C(C)=C\\CC=C(C)C)CC[C@@]6(C)[C@]5(C)CC[C@H]4C3(C)C)O[C@H](CO)[C@@H](O)[C@@H]2O)[C@H](O)[C@@H](O)[C@@H]1O", "IC50": 40}
{"compound": "CC(C)=CCC[C@](C)(O)[C@H]1CC[C@]2(C)[C@@H]1[C@H](O)C[C@@H]1[C@@]3(C)CC[C@H](O[C@@H]4O[C@H](CO)[C@@H](O)[C@H](O)[C@H]4O[C@@H]4O[C@H](CO)[C@@H](O)[C@H](O)[C@H]4O)C(C)(C)[C@@H]3CC[C@]12C", "IC50": 54}
{"compound": "C=C(CCC=C(C)C)[C@H]1CC[C@]2(C)[C@@H]1[C@H](O)C[C@@H]1[C@@]3(C)C[C@@H](O)[C@H](O[C@@H]4O[C@H](CO)[C@@H](O)[C@H](O)[C@H]4O[C@@H]4O[C@H](COC(C)=O)[C@@H](O)[C@H](O)[C@H]4O)C(C)(C)[C@@H]3CC[C@]12C", "IC50": 38}
